Experimental data from patent publication US10004732B2 (Novartis AG, priority 2014, dated 2018).
Structures can show the parent of a compound that is named as a salt. Where two headings read alike, the source gives them in different places.

Key:
PI 3-kinase alpha [1] = biological target: T1, PI 3-kinase alpha (Homo sapiens, UniProt P42336); assay: Kinase Glo Luminescent Kinase Assay (Kglo), assay A; type: biochemical; details: read-out: Assay A PI3Kα IC50
Target sequence in this assay (P42336 whole entry): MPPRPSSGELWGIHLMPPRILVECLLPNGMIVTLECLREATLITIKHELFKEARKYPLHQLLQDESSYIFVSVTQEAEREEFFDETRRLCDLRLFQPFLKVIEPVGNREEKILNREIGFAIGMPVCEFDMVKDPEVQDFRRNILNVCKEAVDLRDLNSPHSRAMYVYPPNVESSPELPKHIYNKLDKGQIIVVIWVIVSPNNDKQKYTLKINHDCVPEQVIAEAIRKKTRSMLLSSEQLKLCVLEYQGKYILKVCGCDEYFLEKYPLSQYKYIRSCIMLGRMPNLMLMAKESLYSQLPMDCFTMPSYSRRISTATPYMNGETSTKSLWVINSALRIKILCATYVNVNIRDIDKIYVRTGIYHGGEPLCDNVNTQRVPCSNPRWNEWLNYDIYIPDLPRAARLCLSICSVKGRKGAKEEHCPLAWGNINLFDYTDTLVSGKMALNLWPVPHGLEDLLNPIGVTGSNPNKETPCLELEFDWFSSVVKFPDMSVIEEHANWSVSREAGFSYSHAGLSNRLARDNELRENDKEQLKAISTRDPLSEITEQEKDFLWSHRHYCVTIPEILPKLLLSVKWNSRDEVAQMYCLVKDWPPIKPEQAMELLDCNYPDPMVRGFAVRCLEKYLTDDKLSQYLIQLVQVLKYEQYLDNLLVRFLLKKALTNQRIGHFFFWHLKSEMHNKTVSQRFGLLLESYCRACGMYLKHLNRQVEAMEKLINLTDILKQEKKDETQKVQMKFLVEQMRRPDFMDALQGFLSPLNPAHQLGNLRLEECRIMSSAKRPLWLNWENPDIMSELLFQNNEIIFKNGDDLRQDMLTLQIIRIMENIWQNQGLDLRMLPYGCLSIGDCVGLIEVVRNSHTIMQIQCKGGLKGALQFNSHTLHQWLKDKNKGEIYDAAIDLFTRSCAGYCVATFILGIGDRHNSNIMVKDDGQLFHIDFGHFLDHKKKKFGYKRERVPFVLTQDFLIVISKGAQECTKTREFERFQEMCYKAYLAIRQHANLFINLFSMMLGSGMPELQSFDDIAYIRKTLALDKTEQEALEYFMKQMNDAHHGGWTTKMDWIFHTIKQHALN

PI 3-kinase beta [2] = biological target: T2, PI 3-kinase beta (Homo sapiens, UniProt P42338); assay: Kinase Glo Luminescent Kinase Assay (Kglo), assay B; type: biochemical; details: read-out: Assay B PI3Kβ IC50
Vps34 = Vps34 (Homo sapiens, UniProt Q8NEB9); assay: Kinase Glo Luminescent Kinase Assay (Kglo), assay C; type: biochemical; details: read-out: Assay C VPS34 IC50
PI 4-kinase beta = PI 4-kinase beta (Homo sapiens, UniProt Q9UBF8); assay: Kinase Glo Luminescent Kinase Assay (Kglo), assay D; type: biochemical; details: read-out: Assay D PI4Kβ IC50
Sequence of PI 4-kinase beta (Q9UBF8 whole entry): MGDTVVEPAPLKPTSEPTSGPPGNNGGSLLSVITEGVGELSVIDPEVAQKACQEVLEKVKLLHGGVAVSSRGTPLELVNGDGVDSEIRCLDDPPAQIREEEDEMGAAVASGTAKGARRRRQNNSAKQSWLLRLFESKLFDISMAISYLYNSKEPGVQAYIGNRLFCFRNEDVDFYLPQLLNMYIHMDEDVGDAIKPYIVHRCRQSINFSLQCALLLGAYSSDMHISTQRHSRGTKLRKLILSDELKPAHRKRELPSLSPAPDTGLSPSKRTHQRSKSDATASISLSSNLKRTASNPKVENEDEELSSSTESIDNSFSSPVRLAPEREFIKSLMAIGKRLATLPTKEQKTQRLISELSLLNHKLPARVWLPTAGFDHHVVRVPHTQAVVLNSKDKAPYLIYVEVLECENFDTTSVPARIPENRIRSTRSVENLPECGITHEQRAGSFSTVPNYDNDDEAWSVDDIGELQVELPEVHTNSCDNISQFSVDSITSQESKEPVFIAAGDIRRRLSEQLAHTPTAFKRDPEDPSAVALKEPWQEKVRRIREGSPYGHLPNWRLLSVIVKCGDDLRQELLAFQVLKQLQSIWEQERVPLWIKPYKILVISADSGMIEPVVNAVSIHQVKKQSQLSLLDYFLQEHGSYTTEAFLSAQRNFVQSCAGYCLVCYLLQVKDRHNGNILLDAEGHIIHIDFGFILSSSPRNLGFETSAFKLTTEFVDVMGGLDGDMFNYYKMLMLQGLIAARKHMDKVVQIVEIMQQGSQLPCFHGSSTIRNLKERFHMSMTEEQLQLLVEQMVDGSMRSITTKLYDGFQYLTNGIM

PI 3-kinase gamma [3] = biological target: T3, PI 3-kinase gamma (Homo sapiens, UniProt P48736); assay: TR-FRET Adapta assay, assay E; type: biochemical; details: read-out: Assay E PI3Kγ IC50
T3 sequence (P48736 whole entry): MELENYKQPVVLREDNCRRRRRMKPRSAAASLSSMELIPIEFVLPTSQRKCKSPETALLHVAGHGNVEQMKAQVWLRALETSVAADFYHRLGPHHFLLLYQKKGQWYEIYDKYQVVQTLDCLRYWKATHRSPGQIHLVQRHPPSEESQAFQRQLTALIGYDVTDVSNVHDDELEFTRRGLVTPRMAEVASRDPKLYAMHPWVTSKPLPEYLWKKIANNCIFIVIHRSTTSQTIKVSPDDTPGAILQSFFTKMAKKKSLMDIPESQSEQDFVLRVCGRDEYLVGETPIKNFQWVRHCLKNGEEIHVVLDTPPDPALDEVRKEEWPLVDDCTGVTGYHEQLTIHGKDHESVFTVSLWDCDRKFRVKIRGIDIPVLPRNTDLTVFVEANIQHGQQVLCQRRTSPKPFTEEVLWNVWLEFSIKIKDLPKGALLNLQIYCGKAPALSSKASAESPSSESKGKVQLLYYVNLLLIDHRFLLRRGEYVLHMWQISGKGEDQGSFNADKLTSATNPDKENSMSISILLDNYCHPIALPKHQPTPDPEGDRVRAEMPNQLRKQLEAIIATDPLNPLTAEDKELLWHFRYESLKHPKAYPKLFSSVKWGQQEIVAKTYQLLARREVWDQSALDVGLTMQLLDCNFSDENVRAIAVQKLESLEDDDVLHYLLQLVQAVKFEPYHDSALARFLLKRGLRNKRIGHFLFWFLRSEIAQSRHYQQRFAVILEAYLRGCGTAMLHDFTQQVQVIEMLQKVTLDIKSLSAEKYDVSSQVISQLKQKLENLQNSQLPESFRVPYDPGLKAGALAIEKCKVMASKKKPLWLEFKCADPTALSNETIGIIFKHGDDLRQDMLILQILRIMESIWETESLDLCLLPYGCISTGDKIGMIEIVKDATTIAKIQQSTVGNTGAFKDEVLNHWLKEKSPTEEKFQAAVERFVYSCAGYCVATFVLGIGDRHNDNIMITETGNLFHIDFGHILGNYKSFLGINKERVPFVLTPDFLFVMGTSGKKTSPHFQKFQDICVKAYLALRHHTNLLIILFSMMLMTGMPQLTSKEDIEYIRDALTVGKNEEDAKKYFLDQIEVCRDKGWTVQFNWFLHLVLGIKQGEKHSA
Protocol: TR-FRET Adapta Assay for PI 3-Kinase Gamma (E), PI 3-Kinase Delta (F)
The TR-FRET Adapta™ Universal Kinase Assay Kit was purchased from Invitrogen Corporation (Carlsbad/CA, USA) (Cat. No. PV5099).
PIK3CD substrate phosphatidylinositol (PI) was obtained from Invitrogen (vesicules consisting of 2 mM phosphatidylinositol (PI) in 50 mM HEPES pH7.5; Cat. No. PV5371). PIK3CG substrate phosphatidylinositol-4,5-bisphosphate (PIP(4,5)2 was obtained from Invitrogen (PIP2:PS large unilamellar vesicules consisting of 1 mM PIP2: 19 mM PS in 50 mM HEPES pH7.5, 3 mM MgCl2, 1 mM EGTA; Cat. No. PV5100).
Time-Resolved Fluorescence Resonance Energy Transfer (TR-FRET) is a technology based on energy transfer between two adjacent dyes, from an excited electron in one dye (the donor) to an electron of an adjacent dye (the acceptor) through resonance, then released as a photon. This energy transfer is detected by an increase in the fluorescence emission of the acceptor, and a decrease in the fluorescence emission of the donor. TR-FRET assays for protein kinases use a long-lifetime lanthanide Terbium or Europium chelates as the donor species which overcome interference from compound autofluorescence or light scatter from precipitated compounds, by introducing a delay after excitation by a flashlamp excitation source. Results are often expressed as a ratio of the intensities of the acceptor and donor fluorophores. The ratiometric nature of such a value corrects for differences in assay volumes between wells, as well as corrects for quenching effects due to colored compounds. The Adapta™ assay can be divided into two phases: a kinase reaction phase and an ADP detection phase. In the kinase reaction phase, all kinase reaction components are added to the well and the reaction is allowed to incubate for a set period of time specific for each kinase. […] In the presence of an inhibitor, the amount of ADP formed by the kinase reaction is reduced, and the resulting intact antibody-tracer interaction maintains a high TR-FRET signal.
50 nL of compound dilutions were dispensed onto white 384-well small volume polystyrene plate. Then 5 μL of either PI 3-kinase gamma or PI 3-kinase delta and lipid substrate (PI or PIP2:PS) followed by 5 μL of ATP (final assay volume 10 μL) are incubated at RT. The standard reaction buffer for the Adapta™ TR-FRET assay contained 10 mM Tris-HCl pH 7.5, 3 mM MgCl2, 50 mM NaCl, 1 mM DTT, 0.05% CHAPS 3-[(3-cholamidopropyl)dimethylammonio]-1-propanesulfonate).
Data are analyzed using Excel fit software or Graphpad Prism. IC50 values were derived by fitting a sigmoidal dose-response curve to a plot of assay readout over inhibitor concentration. All fits were performed with the program XLfit4 (ID Business Solutions, Guildford, UK). […] All fits were performed with the program XLfit4 (ID Business Solutions, Guildford, UK).

mTOR = mTOR (Homo sapiens, UniProt P42345); assay: Lanthascreen kinase binding assay, assay G; details: read-out: Assay G mTOR IC50
Protocol: Lanthascreen™ Kinase Binding Assay for mTOR (G)
Binding of an inhibitor to the kinase competes for binding with the tracer, resulting in a loss of FRET.
50 nL of compound dilutions were dispensed onto white 384-well small volume polystyrene plate.

PI 3-kinase gamma [4] = biological target: T3, PI 3-kinase gamma; assay: Cellular U937 AKT assay K1 (MSD); type: cell-based; details: U937 cells, K1 format; read-out: Assay K1 PI3Kγ IC50
[5] = test system: IL-8-induced neutrophil shape change in human whole blood; assay: Whole blood neutrophil shape change assay (L); type: cell-based; details: IL-8, human whole blood, read-out: Assay L WBSC IC50
PI 3-kinase delta [6] = biological target: T4, PI 3-kinase delta (Homo sapiens, UniProt O00329); assay: TR-FRET Adapta assay, assay F
Target sequence in this assay (O00329 whole entry): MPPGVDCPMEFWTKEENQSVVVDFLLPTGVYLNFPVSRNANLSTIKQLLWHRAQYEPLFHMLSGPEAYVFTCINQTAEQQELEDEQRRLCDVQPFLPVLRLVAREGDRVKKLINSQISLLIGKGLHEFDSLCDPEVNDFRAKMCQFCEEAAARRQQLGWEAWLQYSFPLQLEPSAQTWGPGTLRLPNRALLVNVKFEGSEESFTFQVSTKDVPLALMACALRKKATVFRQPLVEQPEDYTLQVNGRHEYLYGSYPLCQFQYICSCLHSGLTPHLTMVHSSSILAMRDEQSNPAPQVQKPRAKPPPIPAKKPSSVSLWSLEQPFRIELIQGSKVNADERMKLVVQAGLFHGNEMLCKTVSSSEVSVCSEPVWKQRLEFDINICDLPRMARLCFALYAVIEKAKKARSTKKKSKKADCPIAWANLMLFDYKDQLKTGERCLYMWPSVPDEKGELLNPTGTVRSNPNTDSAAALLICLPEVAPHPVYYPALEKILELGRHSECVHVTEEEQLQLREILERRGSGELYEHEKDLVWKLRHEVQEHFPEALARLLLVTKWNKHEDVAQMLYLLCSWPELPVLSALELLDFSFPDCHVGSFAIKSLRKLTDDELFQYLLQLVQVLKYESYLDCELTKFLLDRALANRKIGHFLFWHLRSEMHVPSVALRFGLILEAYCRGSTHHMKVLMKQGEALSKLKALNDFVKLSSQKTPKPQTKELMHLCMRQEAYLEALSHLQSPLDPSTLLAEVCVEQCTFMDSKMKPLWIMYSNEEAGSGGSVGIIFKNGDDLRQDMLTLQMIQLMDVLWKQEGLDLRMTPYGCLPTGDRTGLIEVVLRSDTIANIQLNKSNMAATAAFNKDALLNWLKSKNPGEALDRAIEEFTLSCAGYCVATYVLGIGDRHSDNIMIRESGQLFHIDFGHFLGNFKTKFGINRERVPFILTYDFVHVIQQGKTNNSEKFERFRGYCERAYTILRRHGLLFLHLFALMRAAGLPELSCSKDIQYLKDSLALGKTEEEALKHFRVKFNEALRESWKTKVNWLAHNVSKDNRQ
Target sequence in this assay (P27986 461-568 partner): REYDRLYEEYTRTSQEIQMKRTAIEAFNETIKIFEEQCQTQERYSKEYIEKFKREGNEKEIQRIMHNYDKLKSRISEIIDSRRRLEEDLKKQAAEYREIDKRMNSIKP

PI 3-kinase alpha [7] = biological target: T1, PI 3-kinase alpha; assay: Cellular assay H1, p-Akt (S473) in Rat-1 cells, Surefire format; type: cell-based; details: non-asterisked data: version H1 (Surefire format), Rat-1 cells; read-out: Assay H PI3Kα IC50
Target sequence in this assay (P42336 whole entry): as the sequence (P42336 whole entry) above
Target sequence in this assay (Q63787 whole entry partner): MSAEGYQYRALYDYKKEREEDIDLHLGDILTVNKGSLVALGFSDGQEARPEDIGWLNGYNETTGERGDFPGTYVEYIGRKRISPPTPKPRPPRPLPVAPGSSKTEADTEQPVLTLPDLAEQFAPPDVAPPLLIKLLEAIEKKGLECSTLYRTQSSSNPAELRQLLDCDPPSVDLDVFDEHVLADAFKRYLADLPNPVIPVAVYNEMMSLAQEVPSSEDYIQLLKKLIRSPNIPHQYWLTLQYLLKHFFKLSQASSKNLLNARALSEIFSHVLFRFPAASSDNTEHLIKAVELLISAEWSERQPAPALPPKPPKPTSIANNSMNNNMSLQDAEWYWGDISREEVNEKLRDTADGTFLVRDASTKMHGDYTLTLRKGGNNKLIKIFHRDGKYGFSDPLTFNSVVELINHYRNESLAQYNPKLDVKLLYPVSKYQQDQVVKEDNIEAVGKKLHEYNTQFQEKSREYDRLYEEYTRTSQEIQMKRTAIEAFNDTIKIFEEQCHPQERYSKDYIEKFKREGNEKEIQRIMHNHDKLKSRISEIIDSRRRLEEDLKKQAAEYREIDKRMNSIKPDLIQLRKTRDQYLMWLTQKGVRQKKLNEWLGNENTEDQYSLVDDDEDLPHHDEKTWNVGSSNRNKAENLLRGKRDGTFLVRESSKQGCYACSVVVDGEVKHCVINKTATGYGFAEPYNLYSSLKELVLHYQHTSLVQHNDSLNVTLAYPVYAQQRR

PI 3-kinase beta [8] = biological target: T2, PI 3-kinase beta; assay: Cellular assay I1, p-Akt (S473) in Rat-1 cells, Surefire format; type: cell-based; details: non-asterisked data: version I1 (Surefire format), Rat-1 cells; read-out: Assay I PI3Kβ IC50
PI 3-kinase delta [9] = biological target: T4, PI 3-kinase delta; assay: Cellular assay J1, p-Akt (S473) in Rat-1 cells, Surefire format; type: cell-based; details: non-asterisked data: version J1 (Surefire format), Rat-1 cells; read-out: Assay J PI3Kδ IC50
Target sequence in this assay (O00329 whole entry): as the sequence (O00329 whole entry) above
Target sequence in this assay (Q63787 whole entry partner): as the sequence (Q63787 whole entry partner) above

[10] = Microsomal clearance assay (M); details: intrinsic clearance in rat liver microsomes
Protocol: The experiments were performed in 96-well glass plates at 37° C. on an automated Tecan EVO platform. Test compounds at a concentration of 10 mM in pure DMSO were diluted 1:1000 in water to 10 μM. […] Reactions were initiated by the addition of 150 μL of a cofactor solution containing 2 mM NADPH.

SMILES	IC50 (PI 3-kinase alpha [1]) [µM]	IC50 (PI 3-kinase beta [2]) [µM]	IC50 (Vps34) [µM]	IC50 (PI 4-kinase beta) [µM]	IC50 (PI 3-kinase gamma [3]) [µM]	IC50 (mTOR) [µM]	IC50 (PI 3-kinase gamma [4]) [µM]	IC50 ([5]; Homo sapiens, Neutrophil) [µM]	IC50 (PI 3-kinase delta [6]; read-out: Assay F PI3Kδ IC50) [µM]	IC50 (PI 3-kinase alpha [7]) [µM]	IC50 (PI 3-kinase beta [8]) [µM]	IC50 (PI 3-kinase delta [9]) [µM]	Assay M RLM CI(int) [10] [µL/min/mg]	IC50 [5] [µM]	IC50 (PI 3-kinase delta [6]; Assay F PI3Kδ IC50 (μM)) [µM]
Cc1ccc(S(=O)(=O)NCC(C)(F)F)cc1-c1cnc(N)c(-n2cncn2)n1 [Example 127.43]	0.56	1.7	> 10	2.9	0.095	8.8	0.275	1.64	3.4						
Cc1ccc(S(=O)(=O)NC[C@@H]2CCNC2)cc1-c1cnc(N)c(-n2cncn2)n1 [Example 127.57, (R)-3-(5-amino-6-(1H-1,2,4-triazol-1-yl)pyrazin-2-yl)-4-methyl-N-(pyrrolidin-3-ylmethyl)benzenesulfonamide trifluoroacetic acid salt]	1.4	0.73	> 10	5.9	0.05	5		13.8	0.76	> 10	> 10	> 10	21		
Cc1ccc(S(=O)(=O)N[C@H]2C[C@@H](O)C2)cc1-c1cnc(N)c(-n2cncn2)n1 [Example 71b, 3-(5-amino-6-(1H-1,2,4-triazol-1-yl)pyrazin-2-yl)-N-((1s,3s)-3-hydroxycyclobutyl)-4-methylbenzenesulfonamide]	0.76	1.9	> 10	4.6	0.021	> 10			1.3	6.91	> 10	5.86	26	1.62	
Cc1ccc(S(=O)(=O)N[C@H]2C[C@H](O)C2)cc1-c1cnc(N)c(-n2cncn2)n1 [Example 71a, 3-(5-Amino-6-(1H-1,2,4-triazol-1-yl)pyrazin-2-yl)-N-((1r,3r)-3-hydroxycyclobutyl)-4-methylbenzenesulfonamide]	0.33	1.1	> 10	2.8	0.013	> 10			1	3.06	8.02	3.65	18	0.763	
COCCCNS(=O)(=O)c1ccc(C)c(-c2cnc(N)c(-c3ccnc(C)c3)n2)c1 [Example 129.11, 3-(5-amino-6-(2-methylpyridin-4-yl)pyrazin-2-yl)-N-(3-methoxypropyl)-4-methylbenzenesulfonamide]	0.64	> 9.1	> 9.1	> 9.1	0.173	> 9.1		5.68	0.79	2.73	8.38	3.33	105		
CC(C)(O)CCNS(=O)(=O)c1ccc(Cl)c(-c2cnc(N)c(-n3cncn3)n2)c1 [Example 38, 3-(5-Amino-6-(1H-1,2,4-triazol-1-yl)pyrazin-2-yl)-4-chloro-N-(3-hydroxy-3-methylbutyl)benzenesulfonamide]	0.92	3.5	> 9.1	4.2	0.025	8.4		3.38	0.14	3.02	2.11	2.36	89		
CCn1ncc(-c2nc(-c3cc(S(=O)(=O)NCC(C)(C)O)ccc3C)cnc2N)n1 [Example 82, 3-(5-Amino-6-(2-ethyl-2H-1,2,3-triazol-4-yl)pyrazin-2-yl)-N-(2-hydroxy-2-methylpropyl)-4-methylbenzenesulfonamide]	0.18	5.5	> 10	> 10	0.041	> 10		0.825	0.54	0.86	2.98	0.61	25		
CC(C)(O)CNS(=O)(=O)c1ccc(Cl)c(-c2cnc(N)c(-n3cncn3)n2)c1 [Example 37, 3-(5-Amino-6-(1H-1,2,4-triazol-1-yl)pyrazin-2-yl)-4-chloro-N-(2-hydroxy-2-methylpropyl)benzenesulfonamide]	1	3.5	> 9.1	3.5	0.083	5.9		1.55	0.73	7.91	1.89	5.92	33		
Cc1ccc(S(=O)(=O)NCC2(C(N)=O)CC2)cc1-c1cnc(N)c(-n2cncn2)n1 [Example 127.56]	0.42	1.2	> 10	> 10	0.073	7.4		0.715	1.4	9.61	3.56	6	25		

Continued by falling IC50 (PI 3-kinase alpha [1]), values first:

IC50 (PI 3-kinase alpha [1]) [µM]	IC50 (PI 3-kinase beta [2]) [µM]	IC50 (Vps34) [µM]	IC50 (PI 4-kinase beta) [µM]	IC50 (PI 3-kinase gamma [3]) [µM]	IC50 (mTOR) [µM]	IC50 (PI 3-kinase gamma [4]) [µM]	IC50 ([5]; Homo sapiens, Neutrophil) [µM]	IC50 (PI 3-kinase delta [6]; read-out: Assay F PI3Kδ IC50) [µM]	IC50 (PI 3-kinase alpha [7]) [µM]	IC50 (PI 3-kinase beta [8]) [µM]	IC50 (PI 3-kinase delta [9]) [µM]	Assay M RLM CI(int) [10] [µL/min/mg]	IC50 [5] [µM]	IC50 (PI 3-kinase delta [6]; Assay F PI3Kδ IC50 (μM)) [µM]	SMILES
0.29	1.2	> 10	1.5	0.011	1.1		2.47	0.56	1.57	> 10	1.14	907			Cc1ccc(S(=O)(=O)N2CCCC(F)(F)C2)cc1-c1cnc(N)c(-n2cncn2)n1 [Example 127.1]
0.2	1.8	> 10	8.7	0.026	9.6	0.242	1.09	0.79							Cc1ccc(S(=O)(=O)NC[C@H]2CCOC2)cc1-c1cnc(N)c(-n2cncn2)n1 [Example 127.27]
0.12	2.3	> 10	7.05	0.042	> 10		1.01	0.21	0.45	> 3	0.44	64			Cc1ccc(S(=O)(=O)NCC(C)(C)O)cc1-c1cnc(N)c(-c2cnn(CC(F)(F)F)n2)n1 [Example 84, 3-(5-Amino-6-(2-(2,2,2-trifluoroethyl)-2H-1,2,3-triazol-4-yl)pyrazin-2-yl)-N-(2-hydroxy-2-methylpropyl)-4-methyl benzenesulfonamide]
0.11	0.75	> 10	4.6	0.025	2				1.92	2.64	1.41	58	0.185	0.29	Cc1ccc(S(=O)(=O)NC2CC3(CC(O)C3)C2)cc1-c1cnc(N)c(-n2cncn2)n1 (single isomer, unassigned) [Example 70a, (S)-3-(5-Amino-6-(1H-1,2,4-triazol-1-yl)pyrazin-2-yl)-N-(6-hydroxyspiro[3.3]heptan-2-yl)-4-methylbenzenesulfonamide or (R)-3-(5-Amino-6-(1H-1,2,4-triazol-1-yl)pyrazin-2-yl)-N-(6-hydroxyspiro[3.3]heptan-2-yl)-4-methylbenzenesulfonamide]
